Test results from US20130029970A1 (priority 2009, published 2013).

Key:
human CB2 receptors = target: T1, human CB2 receptors (Homo sapiens, UniProt P34972); assay: cAMP assay in HEK-293 cells, hCB2 agonist; type: cell-based; details: inhibition of forskolin-stimulated cAMP, HEK-293 cells; for EC50: read-out: hCB2 EC50 (cAMP ag)
T1 construct: (cDNA clone) CNR0200000
Method in brief: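 HEK-293 cells stably expressing human CB2, suspended at 1,500,000 cells/mL in HBSS with 10 mM HEPES and 0.1% fatty-acid-free BSA, exposed to test compound plus forskolin (90 uM in the 3× compound solution) for 30 min at 37° C.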

human CB1 receptors = target: T2, human CB1 receptors (Homo sapiens, UniProt P21554); assay: cAMP assay in HEK-293 cells, hCB1 agonist; type: cell-based; details: inhibition of forskolin-stimulated cAMP, HEK-293 cells; for EC50: read-out: hCB1 EC50 (cAMP ag)
T2 construct: (cDNA clone) CNR01L000
T2 sequence (P21554 whole entry): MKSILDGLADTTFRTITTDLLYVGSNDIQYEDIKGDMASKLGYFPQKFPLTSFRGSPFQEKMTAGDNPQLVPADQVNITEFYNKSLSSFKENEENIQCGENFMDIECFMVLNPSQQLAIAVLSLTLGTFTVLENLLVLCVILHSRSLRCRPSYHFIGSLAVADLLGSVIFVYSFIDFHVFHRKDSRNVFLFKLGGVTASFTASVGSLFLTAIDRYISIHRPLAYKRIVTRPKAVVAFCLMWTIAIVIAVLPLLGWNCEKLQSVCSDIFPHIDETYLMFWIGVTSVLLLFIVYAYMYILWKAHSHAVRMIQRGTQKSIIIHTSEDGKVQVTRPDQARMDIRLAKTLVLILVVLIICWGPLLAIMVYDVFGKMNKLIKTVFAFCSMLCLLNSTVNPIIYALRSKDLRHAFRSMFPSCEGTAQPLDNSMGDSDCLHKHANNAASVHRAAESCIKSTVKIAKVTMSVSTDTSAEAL
Method in brief: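 Stable hCB1 HEK-293 cells suspended in HBSS with 10 mM HEPES and 0.1% fatty acid-free BSA, incubated 30 min at 37° C. with compound plus forskolin (90 uM in the 3× compound solution). Lysed cAMP measured by enzyme-fragment kit; EC50 = 50% inhibition of forskolin-stimulated cAMP (forskolin maximum = 100%), sigmoidal fit.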

[1] = target: T3, recombinant human cannabinoid receptor CB2 (Homo sapiens, UniProt P34972); assay: Cannabinoid receptor radioligand binding assay, [3H]-CP 55,940 displacement, hCB2
T3 construct: (cDNA clone) CNR0200000
T3 sequence (P34972 whole entry): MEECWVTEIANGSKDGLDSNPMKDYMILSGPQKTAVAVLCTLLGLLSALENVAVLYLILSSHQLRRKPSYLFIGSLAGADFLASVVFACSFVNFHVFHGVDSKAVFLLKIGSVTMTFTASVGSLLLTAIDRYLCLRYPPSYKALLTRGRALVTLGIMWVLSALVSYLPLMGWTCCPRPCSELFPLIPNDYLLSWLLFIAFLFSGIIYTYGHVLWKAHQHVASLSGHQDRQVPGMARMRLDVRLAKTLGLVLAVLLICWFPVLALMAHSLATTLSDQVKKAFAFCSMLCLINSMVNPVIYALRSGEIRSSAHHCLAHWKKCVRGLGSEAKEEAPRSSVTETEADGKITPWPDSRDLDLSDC
Method in brief: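 Membranes from hCB2-transfected cells, prepared by 1000×g then 40,000×g centrifugation, resuspended in 20 mM HEPES pH 7.4, 5 mM MgCl2, 1 mM EDTA, 10% sucrose.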

T1 sequence (P34972 whole entry): as above

Cc1cc2cc(C(=O)c3cccc(Cl)c3)sc2n1CCN1CCOCC1 [Compound 4, (3-Chlorophenyl)(5-methyl-6-(2-morpholinoethyl)-6H-thieno[2,3-b]pyrrol-2-yl)methanone]
EC50 (human CB2 receptors): < 100 nM | hCB1 EC50 (cAMP ag, nM) (human CB1 receptors): NS (NS means “Not Significant,” which means less than 30% agonist activity when compared to the positive control.) | IC50 [1]: 100 to 1000 nM

Cc1cc2cc(C(=O)c3ccccc3)sc2n1CCN1CCOCC1 [Compound 7, (5-Methyl-6-(2-morpholinoethyl)-6H-thieno[2,3-b]pyrrol-2-yl)(phenyl)methanone]
EC50 (human CB2 receptors): < 100 nM | EC50 (human CB1 receptors): 1000 to 10000 nM | IC50 [1]: 100 to 1000 nM

Cc1cc2cc(C(=O)c3ccc(Cl)cc3Cl)sc2n1CCN1CCOCC1 [Compound 10, (2,4-Dichlorophenyl)(5-methyl-6-(2-morpholinoethyl)-6H-thieno[2,3-b]pyrrol-2-yl)methanone]
EC50 (human CB2 receptors): < 100 nM | EC50 (human CB1 receptors): 100 to 1000 nM | IC50 [1]: < 100 nM

Cc1ccccc1C(=O)c1cc2cc(C)n(CCN3CCOCC3)c2s1 [Compound 12, (5-Methyl-6-(2-morpholinoethyl)-6H-thieno[2,3-b]pyrrol-2-yl)(o-tolyl)methanone]
EC50 (human CB2 receptors): < 100 nM | EC50 (human CB1 receptors): 100 to 1000 nM | IC50 [1]: < 100 nM

CCn1c(C)cc2cc(C(=O)c3cccc(Cl)c3Cl)sc21 [Compound 19, (2,3-Dichlorophenyl)(6-ethyl-5-methyl-6H-thieno[2,3-b]pyrrol-2-yl)methanone]
EC50 (human CB2 receptors): < 100 nM | hCB1 EC50 (cAMP ag, nM) (human CB1 receptors): NS (NS means “Not Significant,” which means less than 30% agonist activity when compared to the positive control.) | IC50 [1]: 100 to 1000 nM

CCS(=O)(=O)n1c(C)cc2cc(C(=O)c3cccc(Cl)c3Cl)sc21 [Compound 25, (2,3-Dichlorophenyl)(6-(ethylsulfonyl)-5-methyl-6H-thieno[2,3-b]pyrrol-2-yl)methanone]
EC50 (human CB2 receptors): < 100 nM | hCB1 EC50 (cAMP ag, nM) (human CB1 receptors): NS (NS means “Not Significant,” which means less than 30% agonist activity when compared to the positive control.) | IC50 [1]: < 100 nM

COc1cccc(C(=O)c2cc3cc(C)n(CCN4CCOCC4)c3s2)c1 [Compound 26, (3-Methoxyphenyl)(5-methyl-6-(2-morpholinoethyl)-6H-thieno[2,3-b]pyrrol-2-yl)methanone]
EC50 (human CB2 receptors): < 100 nM | EC50 (human CB1 receptors): 100 to 1000 nM | IC50 [1]: < 100 nM

Cc1cc2cc(C(=O)c3cccc(Cl)c3Cl)sc2n1CCc1ccccc1 [Compound 30, (2,3-Dichlorophenyl)(5-methyl-6-phenethyl-6H-thieno[2,3-b]pyrrol-2-yl)methanone]
EC50 (human CB2 receptors): < 100 nM | hCB1 EC50 (cAMP ag, nM) (human CB1 receptors): NS (NS means “Not Significant,” which means less than 30% agonist activity when compared to the positive control.) | IC50 [1]: < 100 nM

Cc1cc2cc(C(=O)c3cccc(Cl)c3Cl)sc2n1CC1CCOCC1 [Compound 31, (2,3-Dichlorophenyl)(5-methyl-6-((tetrahydro-2H-pyran-4-yl)methyl)-6H-thieno[2,3-b]pyrrol-2-yl)methanone]
EC50 (human CB2 receptors): < 100 nM | hCB1 EC50 (cAMP ag, nM) (human CB1 receptors): NS (NS means “Not Significant,” which means less than 30% agonist activity when compared to the positive control.) | IC50 [1]: < 100 nM

Cc1cc2cc(Cc3cccc(Cl)c3Cl)sc2n1CCN1CCOCC1 [Compound 32, 4-(2-(2-(2,3-Dichlorobenzyl)-5-methyl-6H-thieno[2,3-b]pyrrol-6-yl)ethyl)morpholine]
EC50 (human CB2 receptors): < 100 nM | EC50 (human CB1 receptors): 1000 to 10000 nM | IC50 [1]: < 100 nM

Cc1cc2cc(C(=O)c3cccc(Cl)c3Cl)sc2n1CCN1CCN(C)CC1 [Compound 33, (2,3-Dichlorophenyl)(5-methyl-6-(2-(4-methylpiperazin-1-yl)ethyl)-6H-thieno[2,3-b]pyrrol-2-yl)methanone]
hCB2 EC50 (cAMP ag, nM) (human CB2 receptors): NS (NS means “Not Significant,” which means less than 30% agonist activity when compared to the positive control.) | hCB1 EC50 (cAMP ag, nM) (human CB1 receptors): NS (NS means “Not Significant,” which means less than 30% agonist activity when compared to the positive control.) | IC50 [1]: 1000 to 10000 nM

Cc1cc2cc(C(=O)c3cccc(Cl)c3Cl)sc2n1CCCNS(C)(=O)=O [Compound 37, N-(3-(2-(2,3-Dichlorobenzoyl)-5-methyl-6H-thieno[2,3-b]pyrrol-6-yl)propyl)methanesulfonamide]
EC50 (human CB2 receptors): < 100 nM | hCB1 EC50 (cAMP ag, nM) (human CB1 receptors): NS (NS means “Not Significant,” which means less than 30% agonist activity when compared to the positive control.) | IC50 [1]: < 100 nM

Cc1cc2cc(C(=O)c3cccc(Cl)c3Cl)sc2n1S(=O)(=O)C(C)C [Compound 38, (2,3-Dichlorophenyl)(6-(isopropylsulfonyl)-5-methyl-6H-thieno[2,3-b]pyrrol-2-yl)methanone]
EC50 (human CB2 receptors): < 100 nM | hCB1 EC50 (cAMP ag, nM) (human CB1 receptors): NS (NS means “Not Significant,” which means less than 30% agonist activity when compared to the positive control.) | IC50 [1]: < 100 nM

CCS(=O)(=O)n1c(C)cc2cc(C(=O)c3ccccc3Cl)sc21 [Compound 42, (2-Chlorophenyl)(6-(ethylsulfonyl)-5-methyl-6H-thieno[2,3-b]pyrrol-2-yl)methanone]
EC50 (human CB2 receptors): < 100 nM | hCB1 EC50 (cAMP ag, nM) (human CB1 receptors): NS (NS means “Not Significant,” which means less than 30% agonist activity when compared to the positive control.) | IC50 [1]: 100 to 1000 nM

CCS(=O)(=O)n1c(C)cc2cc(C(=O)c3cccnc3Cl)sc21 [Compound 43, (2-Chloropyridin-3-yl)(6-(ethylsulfonyl)-5-methyl-6H-thieno[2,3-b]pyrrol-2-yl)methanone]
EC50 (human CB2 receptors): < 100 nM | hCB1 EC50 (cAMP ag, nM) (human CB1 receptors): NS (NS means “Not Significant,” which means less than 30% agonist activity when compared to the positive control.) | IC50 [1]: 100 to 1000 nM

COc1ccc(C(=O)c2cc3cc(C)n(CCCNS(C)(=O)=O)c3s2)cc1 [Compound 44, N-(3-(2-(4-methoxybenzoyl)-5-methyl-6H-thieno[2,3-b]pyrrol-6-yl)propyl)methanesulfonamide]
EC50 (human CB2 receptors): < 100 nM | hCB1 EC50 (cAMP ag, nM) (human CB1 receptors): NS (NS means “Not Significant,” which means less than 30% agonist activity when compared to the positive control.) | IC50 [1]: < 100 nM

Cc1cc2cc(C(=O)c3cccc(Cl)c3Cl)sc2n1S(=O)(=O)N1CCOCC1 [Compound 45, (2,3-Dichlorophenyl)(5-methyl-6-(morpholinosulfonyl)-6H-thieno[2,3-b]pyrrol-2-yl)methanone]
EC50 (human CB2 receptors): < 100 nM | hCB1 EC50 (cAMP ag, nM) (human CB1 receptors): NS (NS means “Not Significant,” which means less than 30% agonist activity when compared to the positive control.) | IC50 [1]: < 100 nM

Cc1cc2cc(C(=O)c3cccc(Cl)c3Cl)sc2n1S(=O)(=O)CC1CCOCC1 [Compound 46, (2,3-Dichlorophenyl)(5-methyl-6-((tetrahydro-2H-pyran-4-yl)methylsulfonyl)-6H-thieno[2,3-b]pyrrol-2-yl)methanone]
EC50 (human CB2 receptors): < 100 nM | EC50 (human CB1 receptors): < 100 nM | IC50 [1]: < 100 nM

COc1ncccc1C(=O)c1cc2cc(C)n(CCN3CCOCC3)c2s1 [Compound 47, (2-Methoxypyridin-3-yl)(5-methyl-6-(2-morpholinoethyl)-6H-thieno[2,3-b]pyrrol-2-yl)methanone]
EC50 (human CB2 receptors): < 100 nM | hCB1 EC50 (cAMP ag, nM) (human CB1 receptors): NS (NS means “Not Significant,” which means less than 30% agonist activity when compared to the positive control.) | IC50 [1]: 1000 to 10000 nM

COc1ccc(C(=O)c2cc3cc(C)n(S(=O)(=O)N(C)C)c3s2)cc1 [Compound 51, 2-(4-Methoxybenzoyl)-N,N,5-trimethyl-6H-thieno[2,3-b]pyrrole-6-sulfonamide]
EC50 (human CB2 receptors): < 100 nM | hCB1 EC50 (cAMP ag, nM) (human CB1 receptors): NS (NS means “Not Significant,” which means less than 30% agonist activity when compared to the positive control.) | IC50 [1]: < 100 nM

COc1ccc(C(=O)c2cc3cc(C)n(S(=O)(=O)N4CCOCC4)c3s2)cc1 [Compound 53, (4-methoxyphenyl)(5-methyl-6-(morpholinosulfonyl)-6H-thieno[2,3-b]pyrrol-2-yl)methanone]
EC50 (human CB2 receptors): < 100 nM | EC50 (human CB1 receptors): < 100 nM | IC50 [1]: < 100 nM

COc1ccc(C(=O)c2cc3cc(C)n(CCN4CCCOCC4)c3s2)cn1 [Compound 158, (6-(2-(1,4-oxazepan-4-yl)ethyl)-5-methyl-6H-thieno[2,3-b]pyrrol-2-yl)(6-methoxypyridin-3-yl)methanone]
EC50 (human CB2 receptors): < 100 nM | hCB1 EC50 (cAMP ag, nM) (human CB1 receptors): NS (NS means “Not Significant,” which means less than 30% agonist activity when compared to the positive control.)

COc1ccc(C(=O)c2cc3cc(C)n(CCNC4CCOC4)c3s2)cn1 (stereo not drawn) [Compound 164, (6-methoxypyridin-3-yl)(5-methyl-6-(2-((tetrahydrofuran-3-yl)amino)ethyl)-6H-thieno[2,3-b]pyrrol-2-yl)methanone]
EC50 (human CB2 receptors): < 100 nM | hCB1 EC50 (cAMP ag, nM) (human CB1 receptors): NS (NS means “Not Significant,” which means less than 30% agonist activity when compared to the positive control.)

COc1ccc(C(=O)c2cc3cc(C)n(CCN4CCCC4)c3s2)cn1 [Compound 167, (6-methoxypyridin-3-yl)(5-methyl-6-(2-(pyrrolidin-1-yl)ethyl)-6H-thieno[2,3-b]pyrrol-2-yl)methanone]
EC50 (human CB2 receptors): < 100 nM | hCB1 EC50 (cAMP ag, nM) (human CB1 receptors): NS (NS means “Not Significant,” which means less than 30% agonist activity when compared to the positive control.)
